The conditions of data set [1]: 1-week intravenous study, single dose level of 1 g; cited from earlier work.
The conditions of data set [2]: cited from earlier work.
The conditions of data set [3]: mice, cited from earlier work.
The nature of data set [4]: PK of TPZ and metabolites SR4317 and SR4330 after intra-arterial injection of TPZ in NS vs HPβCD. In kind it is in vivo, Sprague Dawley rats. Conditions: for dose proportionality of plasma concentrations: 3.33 mg/kg vs. 7 mg/kg in either solvent; for reduction of plasma concentrations in the curve of HPβCD than that of NS: after TPZ in 1% HPβCD vs NS; for AUClast, HβC Mean / Cmax, HβC Mean / AUClast, Normal Saline (NS) Mean / Cmax, Normal Saline (NS) Mean: rats. From the text: Purpose of the study: To evaluate the pharmacokinetics (PK) of tirapazamine and its metabolites, SR4317 and SR4330 [Graham, M A et al. Cancer Chemother. Pharmacol. (1997) 40 (1): 1-10], after injection of TPZ in 1% HPβCD or normal saline.
Animals: Twenty-four female (12) and male (12) Sprague Daley (SD) rats, weight 200-250 grams, respectively, with femoral artery and jugular vein cannulated, were purchased from, Taconic. Two extra cannulated male and female rates were used to test tolerability with buffer. Each rate was housed individually to safeguard the vessel catheters.
The study parameters are shown in Table 22. began after a 3-day period of adjustment to the animal facility. The study compound was injected into the femoral artery catheter (FAC at 2-1 m (by slow injection. Blood samples were collected from a jugular vein catheter (JVC) at 6 timepoints: 0 (baseline) and after drug administration at 15 and 30 minutes, 1 hr, 2 hr, and 6 hours. The volume of blood sample for each time point was approximately 0.6 mL. Plasma samples were collected in tubes containing sodium heparin as anti-coagulant. Plasma was prepared and frozen in −80° C. Rats were euthanized after the last blood sample (euthanized after the 6 hr time point).
Male rats were around 250 grams, and female 200 grams. There were 8 groups with Groups 1-4 females, and […]. Each group had 3 rats. TPZ was dissolved in NS or […] at a concentration 0.7 mg/mL.
The concentrations of TPZ and its metabolites, SR4317 and SR4330, in rat plasma samples were analyzed using liquid chromatography Tandem Mass Spectrometry (LC-MS) by Primera Analytical Solutions Corp (Princeton, NJ). Standards for TPZ, SR4317 and SR4330 were provided by Teclison, Inc. (Princeton, NJ) for calibration. All analytical data were reviewed for completeness and accuracy. Data transferred manually was cross-checked against source data which was part of the study raw data.
LC-MS analysis was conducted with Sciex 4000 with a Shimadzu LC-30 System.
The concentration data was imported and plotted with SAS program as ADPC (Analysis Dataset of Pharmacokinetics Concentrations) dataset. PK parameters calculated based on ADPC were output as an Analysis Dataset of Pharmacokinetics Parameters (ADPP) dataset.
PK parameters of each profile were calculated by non-compartmental analysis using SAS programming. BLQ (Below the Limit of Quantification) observation prior to the first measurable concentration was imputed as zero, otherwise, the BLQ observation was left as missing.
An apparent first-order terminal elimination rate constant (Kel) was calculated by linear least-squares regression analysis using at least three points (excluding Cmax) in the terminal log-linear phase. Uniform weighting was adopted when performing regression analysis. Linear-up/log-down approach was utilized to calculate AUC.
A linear model was built to evaluate the effect of solution on the PK parameters, adjusting for sex and dose. The model included sex (F, M), solution type (Normal saline, Hydroxypropyl-beta-Cyclodextrin “HP-beta-CD”), and dose (mg) as fixed effects. Sex and solution type are categorical variables (meaning a variable based on a qualitative, not numerical, property) and dose is a continuous variable (meaning a random variable that can take on an infinite number of values within a certain interval that represents measurable data). Separate models were built for each combination of analyte (TPZ, SR4317 and SR4330) and PK parameters (AUClast and Cmax) using the BY statement, which divides the observations from an input data set into groups for processing.
The difference of lease squared means between solution types was estimated. 95% confidence intervals (CI), and p-values for the difference were presented. The significance level (alpha) was set at 0.05, meaning that a p-value less than 0.05 was considered statistically significant.

A further data set has as its system HCC. Particulars: cited from earlier work.
The test system of data set [5] is advanced head and neck cancer. Particulars: intent-to-treat, with radiotherapy 70 Gy; cited from earlier work.
[6] abbreviates: intra-arterial TPZ 3.33 mg/kg in HPβCD.
The mark [7] stands for this setting: intra-arterial TPZ 3.33 mg/kg in NS.
Setting [8] is: intra-arterial TPZ 7 mg/kg in HPβCD.
The mark [9] stands for this setting: intra-arterial TPZ 7 mg/kg in NS.

These results are taken from patent publication US20250345356A1, “TIRAPAZAMINE COMPOSITIONS AND METHODS” (priority 2024, published 2025).

Like-named read-outs stand apart in the source and are kept apart here. Bounds are passed on as bounds.

With 2-hydroxypropyl-β-cyclodextrin [HPβCD], the adverse effects result in data set [1] was “no adverse effects were reported”; in data set [2] (oral daily doses of 16-24 g for 14 days, healthy volunteers) it was “increased incidence of soft stools and diarrhea”. In addition, the “daily dose considered non-toxic” value in data set [2] (at least for 14 days) is < 16 g. Besides, the tolerability entry in data set [2] (daily oral doses of 4-8 g for at least 2 weeks) is “well tolerated and safe”. The lethality entry in data set [3] (single intravenous dose of up to 2 g/kg) was “not lethal”. Moreover, the acute toxicity result in data set [3] (up to 10 gram/kg intra-peritoneal (i.p.) injection) is given as “neither lethal nor did it produce any toxicity”.

On to `Nc1nnc2ccccc2n1` [SR4330], for which, in data set [4] (3.33 mg/kg), the “AUClast HβC/NS Ratio (%)” value worked out at 73.09% and the “Cmax HβC/NS Ratio (%)” value turned out to be 77.65%. Besides, in data set [4], the “dose proportionality of plasma concentrations” value was “dose proportional effect was observed” and the “reduction of plasma concentrations in the curve of HPβCD than that of NS” value is on record as 20-30%. Also, in data set [4] (7 mg/kg), the “AUClast HβC/NS Ratio (%)” value is listed as 74.37& % and the “Cmax HβC/NS Ratio (%)” value was 89.31%. The “half-life compared with TPZ and SR4317” value in data set [4] (rat plasma) was “longer than TPZ and SR4317”. Besides, in data set [4] (setting [6]), the “AUClast, HβC Mean” value came to 99.89 ng·h/mL and the “Cmax, HβC Mean” value is 81.88 ng/mL. For the same compound, in data set [4] (setting [7]), the “AUClast, Normal Saline (NS) Mean” value turned out to be 136.67 ng·h/mL and the “Cmax, Normal Saline (NS) Mean” value amounted to 105.45 ng/mL. Moreover, in data set [4] (setting [8]), the “AUClast, HβC Mean” value was 385.93 ng·h/mL and the “Cmax, HβC Mean” value is recorded as 254.83 ng/mL. Further, in data set [4] (setting [9]), the “AUClast, Normal Saline (NS) Mean” value was determined as 518.92 ng·h/mL and the “Cmax, Normal Saline (NS) Mean” value is 285.33 ng/mL.

With `COc1cccc2c1C(=O)c1c(O)c3c(c(O)c1C2=O)C[C@@](O)(C(=O)CO)C[C@@H]3O[C@H]1C[C@H](N)[C@H](O)[C@H](C)O1` [doxorubicin], the “necrosis in the HCC within the territory of HAL” value in the data set on HCC (Day 1 post-treatment, tirapazamine 3 mg/kg, doxorubicin 10 mg/kg, transient left HAL) is given as “about 5%”. In addition, the “pathological changes in HCCs” value in the data set on HCC (Day 7, 10 mg/kg with left HAL) is recorded as “Little to no pathological changes”.

For the compound `Nc1nc2ccccc2[n+]([O-])n1` [SR4317], in data set [4] (3.33 mg/kg), the “AUClast HβC/NS Ratio (%)” value is given as 78.09% and the “Cmax HβC/NS Ratio (%)” value amounted to 80.62%. Moreover, in data set [4], the “dose proportionality of plasma concentrations” value is “dose proportional effect was observed” and the “reduction of plasma concentrations in the curve of HPβCD than that of NS” value is 20-30%. Further, in data set [4] (7 mg/kg), the “AUClast HβC/NS Ratio (%)” value was 78.86% and the “Cmax HβC/NS Ratio (%)” value is given as 88.17%. In data set [4] (setting [6]), the “AUClast, HβC Mean” value came to 479.96 ng·h/mL and the “Cmax, HβC Mean” value came to 490.17 ng/mL. In addition, in data set [4] (setting [7]), the “AUClast, Normal Saline (NS) Mean” value turned out to be 614.61 ng·h/mL and the “Cmax, Normal Saline (NS) Mean” value was found to be 608.00 ng/mL. Moreover, in data set [4] (setting [8]), the “AUClast, HβC Mean” value was 1210.97 ng·h/mL and the “Cmax, HβC Mean” value was 1122.67 ng/mL. Further, in data set [4] (setting [9]), the “AUClast, Normal Saline (NS) Mean” value was determined as 1535.52 ng·h/mL and the “Cmax, Normal Saline (NS) Mean” value amounted to 1273.33 ng/mL.

For `N.N.[Cl][Pt][Cl]` [CIS, cisplatin], the “2-year OS rates” value in data set [5] was 65.7%.
